In this test the test system is methane production in rumen fluid. In words: Rumen in vitro (RIV) assay, methane production from rumen fluid incubations. Type of test: cell-based, cattle. The settings on record: for inhibition (methane, RIV positive control): 30 μM; for inhibition at 50 µM / inhibition at 10 µM: Bos taurus, read-out: RIV % methane reduction +/− SD. The method, then:
The compounds of the present invention were initially screened for activity using an in vitro fully automated incubation system for the measurement of total gas production and gas composition (methane and hydrogen). The system used is described in detail in the paper by Muetzel et al. (2014; Animal Feed Science and Technology 196, 1-11). The system in this specification is referred to as the rumen in vitro system or RIV. The RIV system provides a relatively simple tool for determining the rate and production of methane and also whether the rate and production of methane is inhibited or reduced by a particular compound or feed. Rumen in vitro assays use rumen fluid from donor animals (typically either sheep or cattle) which is typically combined with a buffer and then incubated in sealed fermentation vessels at 39° C. for either 24 or 48 h. These assays systems have been well-characterised and used by the scientific community over the last two decades (Rymer et al. 2005). The system that has been used here to characterise the effects of inhibitors on methane production and gas production, and the formation of H2, was described by Muetzel et al. (2014). Rumen in vitro assay systems reflect what can occur in the rumen in vivo, but only short-term, due to their short incubation times (typically not exceeding 48 h) which is limited by its buffering capacity and the fact that it is a closed system. Stock solutions of inhibitors were re-suspended in dimethylformamide (DMF) at concentrations 1000-fold higher than the highest used for the assays. Any further dilutions were also prepared using DMF. The total amount of inhibitor solution added to the rumen fluid-buffer mixture (60 mL) was 60 μl. Incubations used 60 ml of medium containing 12 ml of filtered rumen fluid and 48 ml of buffer in serum bottles for 24-48 h, essentially as described by Muetzel et al. (2014). Two fistulated cattle were used as donor animals for rumen fluid and treatments were incubated in duplicate bottles. Sets of duplicate incubation vials that contained ryegrass (with rumen fluid-buffer mixture), and ryegrass with 30 μM bromoethanesulfonate (BES) were also incubated as negative and positive controls, respectively. One experiment consists of 2 replicates of an inhibitor at any one concentration run at the same time, and a run can contain up to 32 bottle, including positive (30 µM BES) and negative (no inhibitor added) controls. Compound 1, for example, was tested using the 60 mL rumen in vitro assay system at 50 μM, 10 μM, and 2 μM final concentrations and compared to a positive control with 30 µM BES.

This is an account of results in patent US20260053171A1, “METHANOGEN INHIBITORS” (AGRIZERONZ LIMITED PARTNERSHIP, priority 2022, published 2026).

Regarding `O=S(=O)(O)CCBr` [BES, bromoethanesulfonate, reference compound], the “inhibition (methane, RIV positive control)” value (at 10 hours) is given as 70.5% and the “inhibition (methane, RIV positive control)” value (at 18 hours) is given as 55.6%.

Take `O=C(O)CCC(=O)N1N=C(c2ccc(Cl)cc2)CC1c1ccc2nccnc2c1` (centres unmarked) [Compound 1, 4-(3-(4-Chlorophenyl)-5-(quinoxalin-6-yl)-4,5-dihydro-1H-pyrazol-1-yl)-4-oxobutanoic acid]: the inhibition at 50 µM turned out to be 37.6 ± 1.3%.

For `O=C(O)CCC(=O)N1N=C(c2ccccc2)CC1c1ccc2nccnc2c1` (centres unmarked) [Compound 1A, 4-Oxo-4-(3-phenyl-5-(quinoxalin-6-yl)-4,5-dihydro-1H-pyrazol-1-yl)butanoic acid], the inhibition at 50 µM was below 5%.

Consider `Cc1ccc(C2=NN(C(=O)CCC(=O)O)C(c3ccc4nccnc4c3)C2)cc1` (centres unmarked) [Compound 2], for which the inhibition at 50 µM came to 13.9%.

On to `CC(C)c1ccc(C2=NN(C(=O)CCC(=O)O)C(c3ccc4nccnc4c3)C2)cc1` (centres unmarked) [Compound 3, 4-(3-(4-Isopropylphenyl)-5-(quinoxalin-6-yl)-4,5-dihydro-1H-pyrazol-1-yl)-4-oxobutanoic acid], for which the inhibition at 10 µM was found to be 5.5 ± 2.8% and the inhibition at 50 µM came out at 78.6 ± 1.1%.

As to `O=C(O)CCC(=O)N1N=C(c2ccc(C3CCCCC3)cc2)CC1c1ccc2nccnc2c1` (centres unmarked) [Compound 4, 4-(3-(4-Cyclohexylphenyl)-5-(quinoxalin-6-yl)-4,5-dihydro-1H-pyrazol-1-yl)-4-oxobutanoic acid], the inhibition at 10 µM is below 5% and the inhibition at 50 µM was 79.5 ± 4.4%.

On to `O=C(O)CCC(=O)N1N=C(c2ccc(C(F)(F)F)cc2)CC1c1ccc2nccnc2c1` (centres unmarked) [Compound 5, 4-Oxo-4-(5-(quinoxalin-6-yl)-3-(4-(trifluoromethyl)phenyl)-4,5-dihydro-1H-pyrazol-1-yl)butanoic acid], for which the inhibition at 50 µM worked out at 46.5 ± 2.7%.

Take `COc1ccc(C2=NN(C(=O)CCC(=O)O)C(c3ccc4nccnc4c3)C2)cc1` (centres unmarked) [Compound 6, 4-(3-(4-Methoxyphenyl)-5-(quinoxalin-6-yl)-4,5-dihydro-1H-pyrazol-1-yl)-4-oxobutanoic acid]: the inhibition at 50 µM was 5.6 ± 2%.

Turning to `O=C(O)CCC(=O)N1N=C(c2ccc(Oc3ccccc3)cc2)CC1c1ccc2nccnc2c1` (centres unmarked) [Compound 7, 4-Oxo-4-(3-(4-phenoxyphenyl)-5-(quinoxalin-6-yl)-4,5-dihydro-1H-pyrazol-1-yl)butanoic acid], the inhibition at 10 µM amounted to 30.7 ± 3.6% and the inhibition at 50 µM was 66.4 ± 14.7%.

In the case of `O=C(O)CCC(=O)N1N=C(c2ccc(OC(F)(F)F)cc2)CC1c1ccc2nccnc2c1` (centres unmarked) [Compound 8, 4-Oxo-4-(5-(quinoxalin-6-yl)-3-(4-(trifluoromethoxy)phenyl)-4,5-dihydro-1H-pyrazol-1-yl)butanoic acid], the inhibition at 10 µM amounted to 22.6 ± 2.8% and the inhibition at 50 µM is 75.2 ± 1.6%.

On to `O=C(O)CCC(=O)N1N=C(c2ccc(Br)cc2)CC1c1ccc2nccnc2c1` (centres unmarked) [Compound 9, 4-(3-(4-Bromophenyl)-5-(quinoxalin-6-yl)-4,5-dihydro-1H-pyrazol-1-yl)-4-oxobutanoic acid], for which the inhibition at 50 µM came to 64.9 ± 1.9%.

`O=C(O)CCC(=O)N1N=C(c2ccc(Cl)cc2Cl)CC1c1ccc2nccnc2c1` (centres unmarked) [Compound 10, 4-(3-(2,4-Dichlorophenyl)-5-(quinoxalin-6-yl)-4,5-dihydro-1H-pyrazol-1-yl)-4-oxobutanoic acid]: the inhibition at 50 µM amounted to 64 ± 0.6%.

Consider `O=C(O)CCC(=O)N1N=C(c2ccc(Cl)c(Cl)c2)CC1c1ccc2nccnc2c1` (centres unmarked) [Compound 11, 4-(3-(3,4-Dichlorophenyl)-5-(quinoxalin-6-yl)-4,5-dihydro-1H-pyrazol-1-yl)-4-oxobutanoic acid], for which the inhibition at 50 µM amounted to 62.8 ± 3.4%.

On to `O=C(O)CCC(=O)N1N=C(c2ccccc2-c2ccccc2)CC1c1ccc2nccnc2c1` (centres unmarked) [Compound 12, 4-(3-([1,1′-Biphenyl]-2-yl)-5-(quinoxalin-6-yl)-4,5-dihydro-1H-pyrazol-1-yl)-4-oxobutanoic acid], for which the inhibition at 10 µM was determined as 51.6 ± 1.5% and the inhibition at 50 µM is 95.9 ± 0.9%.
